According to patent publication US8937062B2, “Compositions and methods for treating, reducing, ameliorating, or preventing infections caused by antibacterial drug-resistant bacteria” (Bausch & Lomb Incorporated, priority 2007, dated 2015):
Converted amounts (≈) assume the structure as drawn.

Key:
[1] = tested on: APC-resistant Haemophilus influenza.; experiment: MIC90, agar plate dilution method (NCCLS), Table 2; type: cell-based; conditions: APC-resistant Haemophilus influenza., 10 isolates
Procedure: (§1) The MIC90 values for this test were determined by the agar plate dilution method according to the National Committee for Clinical Laboratory Standards (“NCCLS”).

[2] = tested on: GM-resistant P. aeruginosa; experiment: MIC90, agar plate dilution method (NCCLS), Table 2; type: cell-based; conditions: 10 isolates
Procedure: as §1

GM-resistant S. aureus = experiment: MIC90, agar plate dilution method (NCCLS), Table 2; type: cell-based; conditions: 10 isolates
Procedure: as §1

[3] = tested on: OFLX-resistant Enterobacteriaceae; experiment: MIC90, agar plate dilution method (NCCLS), Table 2; type: cell-based; conditions: OFLX-resistant Enterobacteriaceae, 10 isolates
Procedure: as §1

OFLX-resistant S. aureus = experiment: MIC90, agar plate dilution method (NCCLS), Table 2; type: cell-based; conditions: 10 isolates
Procedure: as §1

[4] = tested on: PCG-resistant S. pneumoniae; experiment: MIC90, agar plate dilution method (NCCLS), Table 2; type: cell-based; conditions: 10 isolates
Procedure: as §1

[5] = tested on: methicillin-resistant S. aureus; experiment: MIC90, Japanese Society of Chemotherapy guidelines (1993), Table 3; type: cell-based
Procedure: (§2) In a second test, compounds having Formulae IV and V, their racemic mixture, and OFLX were tested in vitro against S. aureus strains that are resistant to methicillin or penicillin. The test was conducted according to the guidelines of the Japanese Society of Chemotherapy (1993).

[6] = tested on: penicillin-resistant S. aureus; experiment: as above; type: cell-based
Procedure: as §2

[7] = tested on: E. cloacae, extended-spectrum β-lactamase positive; experiment: MIC90, broth microdilution (CLSI M7-A7), Table 4; type: cell-based; conditions: 15 isolates
Procedure: (§3) The MIC90 values were determined according to the broth microdilution method outlined in the Clinical and Laboratory Standards Institute Approved Standard M7-A7 (2006).

[8] = tested on: H. influenzae, β-lactamase positive, ampicillin-resistant; experiment: MIC90, broth microdilution (CLSI M7-A7), Table 4; type: cell-based; conditions: 25 isolates
Procedure: as §3

[9] = tested on: H. influenzae, β-lactamase positive; experiment: MIC90, broth microdilution (CLSI M7-A7), Table 4; type: cell-based; conditions: 53 isolates
Procedure: as §3

[10] = tested on: S. aureus, methicillin- and ciprofloxacin-resistant; experiment: MIC90, broth microdilution (CLSI M7-A7), Table 4; type: cell-based; conditions: 24 isolates
Procedure: as §3

[11] = tested on: S. aureus, methicillin-resistant and ciprofloxacin-sensitive; experiment: MIC90, broth microdilution (CLSI M7-A7), Table 4; type: cell-based; conditions: 25 isolates
Procedure: as §3

[12] = tested on: S. aureus, vancomycin-intermediately resistant; experiment: MIC90, broth microdilution (CLSI M7-A7), Table 4; type: cell-based; conditions: 23 isolates
Procedure: as §3

[13] = tested on: S. aureus, vancomycin-resistant; experiment: MIC90, broth microdilution (CLSI M7-A7), Table 4; type: cell-based; conditions: 3 isolates
Procedure: as §3

[14] = tested on: S. epidermidis, methicillin-resistant; experiment: MIC90, broth microdilution (CLSI M7-A7), Table 4; type: cell-based; conditions: 64 isolates
Procedure: as §3

[15] = tested on: S. pneumoniae, levofloxacin-resistant; experiment: MIC90, broth microdilution (CLSI M7-A7), Table 4; type: cell-based; conditions: 25 isolates
Procedure: as §3

[16] = tested on: S. pneumoniae, penicillin-intermediately resistant; experiment: MIC90, broth microdilution (CLSI M7-A7), Table 4; type: cell-based; conditions: 26 isolates
Procedure: as §3

[17] = tested on: S. pneumoniae, penicillin-resistant; experiment: MIC90, broth microdilution (CLSI M7-A7), Table 4; type: cell-based; conditions: 26 isolates
Procedure: as §3

[18] = tested on: Methicillin-Resistant S. aureus Isolates; experiment: In vitro anti-bacterial activity, fourth test, Table 5; type: cell-based, Staphylococcus aureus
Procedure: In a fourth test, the anti-bacterial activity of the compound having Formula IV was tested against some methicillin-resistant S. aureus bacteria strains and compared to the anti-bacterial activity of three commercially available antibiotics: nadifloxacin (“NDFX”), ofloxacin (“OFLX”), and sparfloxacin (“SPFX”).

[19] = tested on: Ofloxacin-resistant Enterobacteriaceae; experiment: organism not typed; type: cell-based; conditions: Ofloxacin-resistant Enterobacteriaceae, clinical isolates, fifth test
Excerpt: (§4) As disclosed above, most of these bacteria strains are also relevant to infections of the ear and upper respiratory tract.

[20] = tested on: Gentamicin-resistant Pseudomonas aeruginosa; experiment: In vitro anti-bacterial activity, resistant clinical isolates, fifth test, Table 6; type: cell-based
Excerpt: as §4

[21] = tested on: Gentamicin-resistant Staphylococcus aureus; experiment: as above; type: cell-based
Excerpt: as §4

[22] = tested on: Ofloxacin-resistant Staphylococcus aureus; experiment: as above; type: cell-based
Excerpt: as §4

[23] = tested on: Penicillin-resistant Streptococcus pneumoniae; experiment: as above; type: cell-based
Excerpt: as §4

[24] = tested on: S. aureus Clinical Isolates; experiment: In vitro activity against clinical isolates, sixth test, Table 7; type: cell-based; conditions: 49 isolates
[25] = tested on: S. pneumoniae Clinical Isolates; experiment: as above; type: cell-based; conditions: 78 isolates

N[C@@H]1CCCCN(c2c(F)cc3c(=O)c(C(=O)O)cn(C4CC4)c3c2Cl)C1 [Compound IV]
MIC90 Geometric Mean [1]: ≦0.06 μg/ml
MIC90 Range [1]: ≦0.06 μg/ml
MIC90 Value [1]: ≦0.06 μg/ml
MIC90 Geometric Mean [2]: 5.28 µg/mL (≈ 13.4 µM)
MIC90 Range [2]: 0.5 to 32 µg/mL
MIC90 Value [2]: 32 µg/mL (≈ 81.3 µM)
MIC90 Geometric Mean (GM-resistant S. aureus): 0.65 µg/mL (≈ 1.65 µM)
MIC90 Range (GM-resistant S. aureus): ≦0.006-8 μg/ml
MIC90 Value (GM-resistant S. aureus): 4 µg/mL (≈ 10.2 µM)
MIC90 Geometric Mean [3]: 11.3 µg/mL (≈ 28.7 µM)
MIC90 Range [3]: 4 to 32 µg/mL
MIC90 Value [3]: 16 µg/mL (≈ 40.6 µM)
MIC90 Geometric Mean (OFLX-resistant S. aureus): 2.14 µg/mL (≈ 5.43 µM)
MIC90 Range (OFLX-resistant S. aureus): 0.5 to 8 µg/mL
MIC90 Value (OFLX-resistant S. aureus): 8 µg/mL (≈ 20.3 µM)
MIC90 Geometric Mean [4]: 0.10 µg/mL (≈ 0.254 µM)
MIC90 Range [4]: ≦0.06-0.13 μg/ml
MIC90 Value [4]: 0.13 µg/mL (≈ 0.33 µM)
MIC90 ([5]; S. aureus (ATCC 33591)): 0.025 µg/mL (≈ 0.0635 µM)
MIC90 ([5]; S. aureus (ATCC 33592)): 0.012 µg/mL (≈ 0.0305 µM)
MIC90 ([5]; S. aureus (ATCC 33593)): 0.025 µg/mL (≈ 0.0635 µM)
MIC90 ([5]; S. aureus (No. 395)): 0.025 µg/mL (≈ 0.0635 µM)
MIC90 ([5]; S. aureus (No. 415)): 0.012 µg/mL (≈ 0.0305 µM)
MIC90 ([5]; S. aureus (No. 419)): 0.025 µg/mL (≈ 0.0635 µM)
MIC90 ([5]; S. aureus (No. 420)): 0.012 µg/mL (≈ 0.0305 µM)
MIC90 ([5]; S. aureus (No. 421)): 0.025 µg/mL (≈ 0.0635 µM)
MIC90 ([6]; S. aureus (ATCC 11632)): 0.025 µg/mL (≈ 0.0635 µM)
MIC90 ([6]; S. aureus (ATCC 13301)): 0.012 µg/mL (≈ 0.0305 µM)
MIC90 Geometric Mean [7]: 4.595 µg/mL (≈ 11.7 µM)
MIC90 Value [7]: >8 µg/mL
MIC90 Geometric Mean [8]: 0.044 µg/mL (≈ 0.112 µM)
MIC90 Range [8]: 0.015 to 0.25 µg/mL
MIC90 Value [8]: 0.12 µg/mL (≈ 0.305 µM)
MIC90 Geometric Mean [9]: 0.027 µg/mL (≈ 0.0686 µM)
MIC90 Range [9]: 0.015 to 0.06 µg/mL
MIC90 Value [9]: 0.03 µg/mL (≈ 0.0762 µM)
MIC90 Geometric Mean [10]: 1.542 µg/mL (≈ 3.92 µM)
MIC90 Range [10]: 0.5 to 8 µg/mL
MIC90 Value [10]: 8 µg/mL (≈ 20.3 µM)
MIC90 Geometric Mean [11]: 0.033 µg/mL (≈ 0.0838 µM)
MIC90 Range [11]: 0.015 to 1 µg/mL
MIC90 Value [11]: 0.06 µg/mL (≈ 0.152 µM)
MIC90 Geometric Mean [12]: 0.652 µg/mL (≈ 1.66 µM)
MIC90 Range [12]: 0.03 to 2 µg/mL
MIC90 Value [12]: 2 µg/mL (≈ 5.08 µM)
MIC90 Geometric Mean [13]: 1.587 µg/mL (≈ 4.03 µM)
MIC90 Range [13]: 1 to 4 µg/mL
MIC90 Geometric Mean [14]: 0.397 µg/mL (≈ 1.01 µM)
MIC90 Value [14]: 8 µg/mL (≈ 20.3 µM)
MIC90 Geometric Mean [15]: 1.028 µg/mL (≈ 2.61 µM)
MIC90 Range [15]: 0.5 to 8 µg/mL
MIC90 Value [15]: 2 µg/mL (≈ 5.08 µM)
MIC90 Geometric Mean [16]: 0.120 µg/mL (≈ 0.305 µM)
MIC90 Range [16]: 0.06 to 2 µg/mL
MIC90 Value [16]: 0.12 µg/mL (≈ 0.305 µM)
MIC90 Geometric Mean [17]: 0.108 µg/mL (≈ 0.274 µM)
MIC90 Range [17]: 0.06 to 0.12 µg/mL
MIC90 Value [17]: 0.12 µg/mL (≈ 0.305 µM)
MIC90 ([18]; Staphylococcus aureus (ATCC 33591)): 0.012 µg/mL (≈ 0.0305 µM)
MIC90 ([18]; Staphylococcus aureus (ATCC 33592)): 0.05 µg/mL (≈ 0.127 µM)
MIC90 ([18]; Staphylococcus aureus (ATCC 33593)): 0.012 µg/mL (≈ 0.0305 µM)
MIC90 ([18]; Staphylococcus aureus (No. 395)): 0.006 µg/mL (≈ 0.0152 µM)
MIC90 ([18]; Staphylococcus aureus (No. 415)): 0.05 µg/mL (≈ 0.127 µM)
MIC90 ([18]; Staphylococcus aureus (No. 419)): 0.1 µg/mL (≈ 0.254 µM)
MIC90 ([18]; Staphylococcus aureus (No. 420)): 0.1 µg/mL (≈ 0.254 µM)
MIC90 ([18]; Staphylococcus aureus (No. 421)): 0.2 µg/mL (≈ 0.508 µM)
MIC90 [19]: 16 µg/mL (≈ 40.6 µM)
MIC90 [20]: 32 µg/mL (≈ 81.3 µM)
MIC90 [21]: 4 µg/mL (≈ 10.2 µM)
MIC90 [22]: 8 µg/mL (≈ 20.3 µM)
MIC90 [23]: 0.13 µg/mL (≈ 0.33 µM)
MIC90 Range [24]: 0.015 to 2 µg/mL
MIC90 Value [24]: 0.25 µg/mL (≈ 0.635 µM)
MIC90 Range [25]: 0.03 to 0.12 µg/mL
MIC90 Value [25]: 0.12 µg/mL (≈ 0.305 µM)
